Source: ChEMBL document CHEMBL3885861, “Open TG-GATES”

Species: Rattus norvegicus
Experiment: Open TG-GATES - Regimen: Single
Format: toxicity, organism-based, Sprague-Dawley
Set-up: regimen Single, gender Male, age 6 weeks
Settings: in vivo, po, route gavage; for Bas / Eos / Fbg / Hb / Ht / Lym / MCHC / MCV / Mono / Neu / PT / Plat / RBC / Ret / WBC / APTT: tissue Blood; for KIDNEY_L / KIDNEY_R / KIDNEY_TOTAL: tissue Kidney; for LIVER: tissue Liver; for ALP / ALT / AST / BUN / CRE / Ca / Cl / DBIL / GLC / IP / K / LDH / Na / PL / RALB / TBIL / TG / TP / gamma-GTP / TC: tissue Plasma
[1] = 300 mg/kg, 3 h, dose level Middle
[2] = 300 mg/kg, 6 h, dose level Middle
[3] = 300 mg/kg, 9 h, dose level Middle
[4] = 300 mg/kg, 24 h, dose level Middle
[5] = 1000 mg/kg, 3 h, dose level High
[6] = 1000 mg/kg, 6 h, dose level High
[7] = 1000 mg/kg, 9 h, dose level High
[8] = 1000 mg/kg, 24 h, dose level High

CN(C)C(=N)N=C(N)N [METFORMIN]
Bas [1]: 0%
Eos [1]: 1%
Fbg [1]: 256.8 mg/dL
Hb [1]: 12.8 g/dL
Ht [1]: 39.1%
Lym [1]: 72.6%
MCHC [1]: 32.9%
MCV [1]: 64.2 fL
Mono [1]: 2.8%
Neu [1]: 23.2%
PT [1]: 12.3 s
Plat [1]: 125.2 x10_4/uL
RBC [1]: 612.2 x10_4/ul
Ret [1]: 10.1%
WBC [1]: 96 x10_2/uL
KIDNEY_L [1]: 0.9 g
KIDNEY_R [1]: 0.9 g
KIDNEY_TOTAL [1]: 1.7 g
LIVER [1]: 8.1 g
ALP [1]: 1196.4 IU/L
ALT [1]: 58 IU/L
AST [1]: 77.2 IU/L
BUN [1]: 8.8 mg/dL
CRE [1]: 0.2 mg/dL
Ca [1]: 11.1 mg/dL
Cl [1]: 106.2 meq/L
DBIL [1]: 0.01 mg/dL
GLC [1]: 156.2 mg/dL
IP [1]: 9 mg/dL
K [1]: 3.8 meq/L
LDH [1]: 65 IU/L
Na [1]: 140.6 meq/L
PL [1]: 132.2 mg/dL
RALB [1]: 2.5 g/dL
TBIL [1]: 0.038 mg/dL
TG [1]: 46.2 mg/dL
TP [1]: 5.2 g/dL
gamma-GTP [1]: 1.2 IU/L
TERMINAL_BW [2]: 200 g
APTT [2]: 16.3 s
Bas [2]: 0.2%
Eos [2]: 1%
Fbg [2]: 254 mg/dL
Hb [2]: 12.8 g/dL
Ht [2]: 38.1%
Lym [2]: 75.6%
MCHC [2]: 33.6%
MCV [2]: 63 fL
Mono [2]: 3%
Neu [2]: 20.2%
PT [2]: 12.5 s
Plat [2]: 113.5 x10_4/uL
RBC [2]: 604.4 x10_4/ul
Ret [2]: 9.6%
WBC [2]: 95.4 x10_2/uL
KIDNEY_L [2]: 0.9 g
KIDNEY_R [2]: 0.9 g
KIDNEY_TOTAL [2]: 1.7 g
LIVER [2]: 7.3 g
ALP [2]: 1116.6 IU/L
ALT [2]: 85 IU/L
AST [2]: 85.6 IU/L
BUN [2]: 8.4 mg/dL
CRE [2]: 0.2 mg/dL
Ca [2]: 11 mg/dL
Cl [2]: 105.6 meq/L
DBIL [2]: 0.004 mg/dL
GLC [2]: 153.4 mg/dL
IP [2]: 10.3 mg/dL
K [2]: 4.1 meq/L
LDH [2]: 51.8 IU/L
Na [2]: 140 meq/L
PL [2]: 126 mg/dL
RALB [2]: 2.5 g/dL
TBIL [2]: 0.04 mg/dL
TG [2]: 28.2 mg/dL
TP [2]: 5.1 g/dL
gamma-GTP [2]: 1 IU/L
TERMINAL_BW [3]: 199.7 g
APTT [3]: 15.9 s
Bas [3]: 0%
Eos [3]: 1%
Fbg [3]: 250.2 mg/dL
Hb [3]: 12.8 g/dL
Ht [3]: 38.2%
Lym [3]: 75%
MCHC [3]: 33.6%
MCV [3]: 64.1 fL
Mono [3]: 2.6%
Neu [3]: 20.4%
PT [3]: 12.4 s
Plat [3]: 111.7 x10_4/uL
RBC [3]: 595.8 x10_4/ul
Ret [3]: 10.1%
WBC [3]: 82.7 x10_2/uL
KIDNEY_L [3]: 0.8 g
KIDNEY_R [3]: 0.9 g
KIDNEY_TOTAL [3]: 1.7 g
LIVER [3]: 6.8 g
ALP [3]: 1220.2 IU/L
ALT [3]: 61.2 IU/L
AST [3]: 75.6 IU/L
BUN [3]: 9 mg/dL
CRE [3]: 0.1 mg/dL
Ca [3]: 10.7 mg/dL
Cl [3]: 106.6 meq/L
DBIL [3]: 0.008 mg/dL
GLC [3]: 162.6 mg/dL
IP [3]: 10.2 mg/dL
K [3]: 4 meq/L
LDH [3]: 52.2 IU/L
Na [3]: 140.8 meq/L
PL [3]: 126.6 mg/dL
RALB [3]: 2.5 g/dL
TBIL [3]: 0.042 mg/dL
TG [3]: 26.2 mg/dL
TP [3]: 5 g/dL
gamma-GTP [3]: 1.4 IU/L
TERMINAL_BW [4]: 208.8 g
APTT [4]: 16.1 s
Bas [4]: 0%
Eos [4]: 0.8%
Fbg [4]: 235.6 mg/dL
Hb [4]: 13.2 g/dL
Ht [4]: 39.1%
Lym [4]: 75.2%
MCHC [4]: 33.8%
MCV [4]: 63.3 fL
Mono [4]: 3%
Neu [4]: 20.6%
PT [4]: 12.5 s
Plat [4]: 112.7 x10_4/uL
RBC [4]: 617.8 x10_4/ul
Ret [4]: 9.3%
WBC [4]: 73.1 x10_2/uL
KIDNEY_L [4]: 0.9 g
KIDNEY_R [4]: 0.9 g
KIDNEY_TOTAL [4]: 1.8 g
LIVER [4]: 9.7 g
ALP [4]: 1591.2 IU/L
ALT [4]: 52.4 IU/L
AST [4]: 77.8 IU/L
BUN [4]: 15.2 mg/dL
CRE [4]: 0.2 mg/dL
Ca [4]: 11.2 mg/dL
Cl [4]: 104.6 meq/L
DBIL [4]: 0.014 mg/dL
GLC [4]: 178 mg/dL
IP [4]: 8.9 mg/dL
K [4]: 4.1 meq/L
LDH [4]: 80 IU/L
Na [4]: 141.4 meq/L
PL [4]: 146.6 mg/dL
RALB [4]: 2.5 g/dL
TBIL [4]: 0.03 mg/dL
TC [4]: 83.4 mg/dL
TG [4]: 87 mg/dL
TP [4]: 5.4 g/dL
gamma-GTP [4]: 1 IU/L
TERMINAL_BW [5]: 201 g
APTT [5]: 16.6 s
Bas [5]: 0.2%
Eos [5]: 1%
Fbg [5]: 250.4 mg/dL
Hb [5]: 13.4 g/dL
Ht [5]: 40.4%
Lym [5]: 78.6%
MCHC [5]: 33.1%
MCV [5]: 64 fL
Mono [5]: 4.2%
Neu [5]: 15.2%
PT [5]: 12.2 s
Plat [5]: 118.4 x10_4/uL
RBC [5]: 631.8 x10_4/ul
Ret [5]: 9.7%
WBC [5]: 85.9 x10_2/uL
KIDNEY_L [5]: 0.9 g
KIDNEY_R [5]: 0.9 g
KIDNEY_TOTAL [5]: 1.8 g
LIVER [5]: 8.2 g
ALP [5]: 1303.6 IU/L
ALT [5]: 60.8 IU/L
AST [5]: 79.2 IU/L
BUN [5]: 8.8 mg/dL
CRE [5]: 0.2 mg/dL
Ca [5]: 11.1 mg/dL
Cl [5]: 106.6 meq/L
DBIL [5]: 0.008 mg/dL
GLC [5]: 149 mg/dL
IP [5]: 9.3 mg/dL
K [5]: 3.8 meq/L
LDH [5]: 63 IU/L
Na [5]: 141.4 meq/L
PL [5]: 130.2 mg/dL
RALB [5]: 2.6 g/dL
TBIL [5]: 0.038 mg/dL
TG [5]: 47 mg/dL
TP [5]: 5.4 g/dL
gamma-GTP [5]: 1 IU/L
TERMINAL_BW [6]: 201.2 g
APTT [6]: 17.8 s
Bas [6]: 0%
Eos [6]: 1%
Fbg [6]: 259.6 mg/dL
Hb [6]: 13 g/dL
Ht [6]: 39%
Lym [6]: 72.4%
MCHC [6]: 33.2%
MCV [6]: 64.7 fL
Mono [6]: 3.4%
Neu [6]: 22.4%
PT [6]: 12.3 s
Plat [6]: 118.4 x10_4/uL
RBC [6]: 602.6 x10_4/ul
Ret [6]: 9.9%
WBC [6]: 87.3 x10_2/uL
KIDNEY_L [6]: 0.8 g
KIDNEY_R [6]: 0.8 g
KIDNEY_TOTAL [6]: 1.7 g
LIVER [6]: 7.3 g
ALP [6]: 996 IU/L
ALT [6]: 104.2 IU/L
AST [6]: 88.4 IU/L
BUN [6]: 9.2 mg/dL
CRE [6]: 0.1 mg/dL
Ca [6]: 11.1 mg/dL
Cl [6]: 106.2 meq/L
DBIL [6]: 0.004 mg/dL
GLC [6]: 137 mg/dL
IP [6]: 10 mg/dL
K [6]: 3.7 meq/L
LDH [6]: 52 IU/L
Na [6]: 140.8 meq/L
PL [6]: 143.4 mg/dL
RALB [6]: 2.5 g/dL
TBIL [6]: 0.05 mg/dL
TC [6]: 86.2 mg/dL
TG [6]: 20.6 mg/dL
TP [6]: 5.2 g/dL
gamma-GTP [6]: 1 IU/L
TERMINAL_BW [7]: 199.9 g
APTT [7]: 16.4 s
Bas [7]: 0.2%
Eos [7]: 1%
Fbg [7]: 251.6 mg/dL
Hb [7]: 13 g/dL
Ht [7]: 38.9%
Lym [7]: 77%
MCHC [7]: 33.2%
MCV [7]: 65.9 fL
Mono [7]: 3%
Neu [7]: 18.6%
PT [7]: 12.5 s
Plat [7]: 112.8 x10_4/uL
RBC [7]: 591.6 x10_4/ul
Ret [7]: 10.3%
WBC [7]: 89.9 x10_2/uL
KIDNEY_L [7]: 0.8 g
KIDNEY_R [7]: 0.8 g
KIDNEY_TOTAL [7]: 1.7 g
LIVER [7]: 6.8 g
ALP [7]: 1282.4 IU/L
ALT [7]: 84.4 IU/L
AST [7]: 83.2 IU/L
BUN [7]: 10 mg/dL
CRE [7]: 0.1 mg/dL
Ca [7]: 10.9 mg/dL
Cl [7]: 107.4 meq/L
DBIL [7]: 0.008 mg/dL
GLC [7]: 113.8 mg/dL
IP [7]: 10.6 mg/dL
K [7]: 3.7 meq/L
LDH [7]: 46 IU/L
Na [7]: 142.2 meq/L
PL [7]: 138.6 mg/dL
RALB [7]: 2.5 g/dL
TBIL [7]: 0.042 mg/dL
TG [7]: 20.6 mg/dL
TP [7]: 5.1 g/dL
gamma-GTP [7]: 1.2 IU/L
TERMINAL_BW [8]: 202.6 g
APTT [8]: 15.2 s
Bas [8]: 0%
Eos [8]: 1%
Fbg [8]: 244.6 mg/dL
Hb [8]: 12.8 g/dL
Ht [8]: 38.3%
Lym [8]: 76.2%
MCHC [8]: 33.5%
MCV [8]: 64.5 fL
Mono [8]: 3.6%
Neu [8]: 18.6%
PT [8]: 12.6 s
Plat [8]: 114.2 x10_4/uL
RBC [8]: 593.4 x10_4/ul
Ret [8]: 9.4%
WBC [8]: 98.2 x10_2/uL
KIDNEY_L [8]: 0.9 g
KIDNEY_R [8]: 0.9 g
KIDNEY_TOTAL [8]: 1.8 g
LIVER [8]: 8.8 g
ALP [8]: 1502.2 IU/L
ALT [8]: 42.6 IU/L
AST [8]: 74.6 IU/L
BUN [8]: 15.4 mg/dL
CRE [8]: 0.2 mg/dL
Ca [8]: 11.3 mg/dL
Cl [8]: 104.2 meq/L
DBIL [8]: 0.012 mg/dL
GLC [8]: 182.4 mg/dL
IP [8]: 8.8 mg/dL
K [8]: 4.3 meq/L
LDH [8]: 57 IU/L
Na [8]: 140.8 meq/L
PL [8]: 135.4 mg/dL
RALB [8]: 2.5 g/dL
TBIL [8]: 0.038 mg/dL
TG [8]: 53.2 mg/dL
TP [8]: 5.4 g/dL
gamma-GTP [8]: 1 IU/L
